In this assay the target is T1, ChU-B laccase (blood-tolerant ChU-B mutant of PM1 laccase) (basidiomycete PM1, UniProt Q12571, F417I/F475E, form not given).
T1 construct: directed-evolution variant; alpha-factor evolved prepro-leader processed, extra N-terminal ETEAEF kept (ETEAEFSIGP...); secreted by Pichia pastoris X-33; 53,939 Da calculated, 62,541 Da glycosylated
In words: steady-state kinetics, absorbance […] nm. The class given is biochemical. Particulars: pH 5.0; enzyme from P. pastoris; read-out: ChU-B fromP. pastoris / Km.

T1 sequence (Q12571 entry or part of it F417I/F475E, form open): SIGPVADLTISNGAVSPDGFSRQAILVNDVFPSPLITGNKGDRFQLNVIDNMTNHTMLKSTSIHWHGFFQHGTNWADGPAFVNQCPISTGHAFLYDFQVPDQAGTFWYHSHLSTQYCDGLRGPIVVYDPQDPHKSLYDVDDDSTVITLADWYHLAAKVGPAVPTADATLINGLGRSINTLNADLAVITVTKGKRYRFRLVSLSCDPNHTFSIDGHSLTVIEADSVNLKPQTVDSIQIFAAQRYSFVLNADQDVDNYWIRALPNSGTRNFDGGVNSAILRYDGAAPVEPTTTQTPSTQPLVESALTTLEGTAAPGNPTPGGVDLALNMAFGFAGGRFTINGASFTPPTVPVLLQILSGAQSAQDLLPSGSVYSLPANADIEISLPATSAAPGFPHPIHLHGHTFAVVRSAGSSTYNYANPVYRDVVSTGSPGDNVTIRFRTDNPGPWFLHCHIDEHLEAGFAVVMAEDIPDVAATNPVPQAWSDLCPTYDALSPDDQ

As for `COc1cccc(OC)c1O` [DMP], the Km came to 1910 ± 50 µM.

For the origin of these results see publication PMC3655043, “Functional expression of a blood tolerant laccase in Pichia pastoris” (BMC Biotechnology, 2013).
